Literature values in patent US20240316075A1, “METHODS FOR TREATMENT OF PAIN WITH CANNABINOIDS” (ANANDA SCIENTIFIC, INC, priority 2021, published 2024).

Assays:
CB2 receptors = CB2 receptors (Homo sapiens, UniProt P34972)
[1] = rats, oral, 120 mg/kg dose
[2] = doses ranging from 10 mg to 6000 mg, single and multiple doses

Chain of CB2 receptors (P34972 whole entry): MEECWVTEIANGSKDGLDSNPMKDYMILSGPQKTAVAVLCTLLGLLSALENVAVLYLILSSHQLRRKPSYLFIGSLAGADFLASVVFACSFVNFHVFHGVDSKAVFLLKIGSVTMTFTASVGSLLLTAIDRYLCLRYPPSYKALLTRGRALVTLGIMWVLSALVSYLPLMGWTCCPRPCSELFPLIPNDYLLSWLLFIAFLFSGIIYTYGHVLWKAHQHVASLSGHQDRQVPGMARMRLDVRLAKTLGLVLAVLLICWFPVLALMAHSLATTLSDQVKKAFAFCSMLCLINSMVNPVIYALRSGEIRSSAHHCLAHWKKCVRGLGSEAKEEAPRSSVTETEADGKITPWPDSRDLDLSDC

**Q.** What does the source list for `C=C(C)[C@@H]1CCC(C)=C[C@H]1c1c(O)cc(CCCCC)cc1O` [CBD, 2-(1R,6R)-3-methyl-6-prop-1-en-2-ylcyclohex-2-en-1-yl-5-pentylbenzene-1,3-diol]?
**A.** Affinity for CB2 receptors (CB2 receptors): low affinity; T½ [1]: 4 to 5 h; Safety finding [2]: safe
